The source of these data is patent US20170165200A1, “COMPOSITION OF LIPID-BASED NANOPARTICLES FOR SMALL MOLECULES AND MACROMOLECULES” (University of North Texas Health Science Center, priority 2015, published 2017).

Data set [1] in a line: In vitro release of NGF by dialysis in 5% BSA-PBS. It counts as physicochemical. The settings on record: 5% BSA-PBS (pH 7), 37° C., first hour (n=4). On the procedure:
In vitro release study. The release of NGF from NGF NPs (n=4) was studied using a dialysis method. The release medium was PBS (pH 7) containing 5% BSA to mimic the physiological condition in blood. Briefly, 200 μl NGF NPs and […] release medium were loaded into the dialysis tube (invco 300 kDa). Then the dialysis tube was placed into a 30 ml release medium and shaken at a 37° C. at 135 rpm. At the time intervals (1, 2, 4, 6, 8, 24, 48 and 72 hours), 100 μl of the release medium were withdrawn and replaced with an equal volume of fresh medium. The amounts of released NGF in the medium were analyzed by a NGF Sandwich ELISA kit. As a control, free NGF (n=4) was studied in parallel.

The test system of a further data set is PC12 cells. Put plainly: Neurite outgrowth study. Type of data set: cell-based. As to the method:
Neurite Outgrowth Study. It is important to maintain protein's activity after the formulation of the NPs. Thus, the inventors chose to measure the bioactivity of NGF HDL-mimicking NPs in PC12 cells for neurite outgrowth. They pre-coated a 6-well plate with rat tail collagen type I. They seeded PC12 cells at a density of 10000 cells/well to the pre-coated 6-well plate overnight to allow cells to attach on the plates. They diluted free NGF (10 μg/ml) and NGF HDL-mimicking NPs (10 μg/ml) with the culture medium to prepare various concentrations at 0.5, 1, 5, 10, 50, and 100 ng/ml using half-half dilution. Then, they added 100 μl of sample into each well of the plate and culture for 4 days. At day 4 they changed the medium to fresh medium containing the corresponding treatment and then continue the treatment for another 3 days. At day 7, they visualized cells by an inverted light microscope and take the imaging from each well at random spots under 10× magnification.

For data set [2] the following is noted: rat, in vivo, iv; cited from earlier work.
The conditions of data set [3]: mice; cited from earlier work.

“free NGF: Recombinant human NGF (nerve growth factor)”: the NGF released in data set [1] is listed as 83%. For the same compound, the neurite outgrowth entry with PC12 cells (day 7, concentration of NGF lower than 10 ng/ml) is reported as “neurite outgrowth cannot be observed clearly”; in the data set on PC12 cells (day 7, treatment concentration higher than 10 ng/ml), “neurite outgrowth was clearly observed”. In data set [2], the half-life entry was “about 5.4 min”.

Take `CC(=O)O[C@@]12CO[C@@H]1C[C@H](O)[C@@]1(C)C(=O)[C@H](O)C3=C(C)[C@@H](OC(=O)[C@H](O)[C@@H](NC(=O)OC(C)(C)C)c4ccccc4)C[C@@](O)([C@@H](OC(=O)c4ccccc4)[C@H]21)C3(C)C` [DTX, Docetaxel]: in data set [3], the “maximal tolerate dose of single dose” value is 15 to 33 mg/kg.
